Experimental findings from patent publication US8889667B2 (Agios Pharmaceuticals, Inc, priority 2010, dated 2014) are described below.

Some results are limits rather than exact numbers.

The target in the assay is PKM2 (Homo sapiens, UniProt P14618). In words: PKM2 Assay (activation, LDH-coupled, absorbance at 340 nm). It counts as biochemical. On the procedure:
• PKM2 stock enzyme solution was diluted in Reaction Buffer • 2 μL of compound was added into each well first, and then 180 μL of the Reaction Mix was added. • Reaction mixture with compound (without ADP) was incubated for 30 minutes at 4° C. • Plates were re-equilibrated to room temperature prior to adding 20 μL ADP to initiate the reaction. • Reaction progress was measured as changes in absorbance at 340 nm wavelength at room temperature (25° C.) Reaction Mix: PKM2 (50 ng/well), ADP (0.7 mM), PEP (0.15 mM), NADH (180 μM), LDH (2 units) in Reaction Buffer Reaction Buffer: 100 mM KCl, 50 mM Tris pH 7.5, 5 mM MgCl2, 1 mM DTT, 0.03% BSA.
Representative compounds of the invention were tested for their ability to activate PKM2 using the above assay. For simplicity, the activation activity of these compounds is represented as an AC50 in Tables 4 and 5 and throughout the application. […] “B” refers to an activator of PKM2 with an EC50 between 100 nM and 500 nM. “C” refers to an activator of PKM2 with an EC50 between 500 nM and 1000 nM. “D” refers to an activator of PKM2 with an EC50 between 1 μM and 20 μM. “E” refers a compound whose activation of PKM2 was not measurable. “N/C” refers to AC50 data not available.

PKM2, sequence (P14618 whole entry): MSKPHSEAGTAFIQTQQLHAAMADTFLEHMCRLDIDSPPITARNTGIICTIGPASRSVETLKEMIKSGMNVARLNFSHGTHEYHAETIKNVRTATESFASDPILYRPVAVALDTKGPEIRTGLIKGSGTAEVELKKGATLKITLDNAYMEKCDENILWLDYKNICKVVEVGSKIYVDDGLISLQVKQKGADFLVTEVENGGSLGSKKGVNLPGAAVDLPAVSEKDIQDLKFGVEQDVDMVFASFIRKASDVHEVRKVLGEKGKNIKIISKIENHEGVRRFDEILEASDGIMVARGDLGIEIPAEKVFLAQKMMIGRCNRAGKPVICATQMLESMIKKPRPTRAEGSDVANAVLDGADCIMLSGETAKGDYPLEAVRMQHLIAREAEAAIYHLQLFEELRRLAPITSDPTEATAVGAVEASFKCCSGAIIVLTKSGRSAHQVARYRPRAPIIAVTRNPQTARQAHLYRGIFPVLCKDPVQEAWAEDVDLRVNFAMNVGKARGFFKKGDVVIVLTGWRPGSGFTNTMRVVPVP

In the case of `O=C(c1ccc(NS(=O)(=O)c2cccc3cccnc23)nc1)N1CCN(CC2CC2)CC1` [Compound 411, N-(5-(4-(cyclopropylmethyl)piperazine-1-carbonyl)pyridin-2-yl)quinoline-8-sulfonamide], for the setting “Table 5”, the concentration at half-maximal activity (AC50) lay within 1000 to 20000 nM.

With `O=C(c1ccc(NS(=O)(=O)c2cccc3cccnc23)cc1)N1CCN(C(=O)c2ccncc2F)CC1` [Compound 317, N-(4-(4-(3-fluoroisonicotinoyl)piperazine-1-carbonyl)phenyl)quinoline-8-sulfonamide], the half-maximal activity concentration (AC50) (Table 5) is less than 100 nM.

Where the note is “Table 4”, `C[C@H]1CN(CC2CCCCO2)CCN1C(=O)c1ccc(NS(=O)(=O)c2cccc3cccnc23)cc1` (stereo partly drawn) [Compound 156, N-(4-((2S)-2-methyl-4-((tetrahydro-2H-pyran-2-yl)methyl)piperazine-1-carbonyl)phenyl)quinoline-8-sulfonamide] registered an AC50 of 500 to 1000 nM.

Take `COc1ccccc1N1CCN(C(=O)c2ccc(NS(=O)(=O)c3cccc4cccnc34)cc2)C(C)C1` (stereo not drawn) [Compound 223, N-(4-(4-(2-methoxyphenyl)-2-methylpiperazine-1-carbonyl)phenyl)quinoline-8-sulfonamide]: the concentration at half-maximal activity (AC50) (Table 4) was less than 100 nM.

For `CC1CN(Cc2cc(F)cc(F)c2F)CC(C)N1C(=O)c1ccc(NS(=O)(=O)c2cccc3cccnc23)cc1` (stereo not drawn) [Compound 200, N-(4-(2,6-dimethyl-4-(2,3,5-trifluorobenzyl)piperazine-1-carbonyl)phenyl)quinoline-8-sulfonamide], the AC50 (Table 4) is less than 100 nM.

For `COc1ccccc1N1C[C@@H](C)N(C(=O)c2ccc(NS(=O)(=O)c3cccc4cccnc34)cc2)[C@@H](C)C1` [Compound 222, N-(4-((2R,6S)-4-(2-methoxyphenyl)-2,6-dimethylpiperazine-1-carbonyl)phenyl)quinoline-8-sulfonamide], the AC50 (Table 4) is less than 100 nM.

`O=C(c1ccc(NS(=O)(=O)c2cccc3cccnc23)cc1)N1CCN(C[C@H]2CCOC2)CC1` [Compound 444, (R)— and (S)—N-(4-(4-((tetrahydrofuran-3-yl)methyl)piperazine-1-carbonyl)phenyl)quinoline-8-sulfonamide] showed a half-maximal activity concentration (AC50) (Table 5) of less than 100 nM.

Regarding `C[C@@H]1CN(CC2CCCCO2)CCN1C(=O)c1ccc(NS(=O)(=O)c2cccc3cccnc23)cc1` (stereo partly drawn) [Compound 163, N-(4-((2R)-2-methyl-4-((tetrahydro-2H-pyran-2-yl)methyl)piperazine-1-carbonyl)phenyl)quinoline-8-sulfonamide], the half-maximal activity concentration (AC50) (Table 4) was less than 100 nM.

The compound `C[C@@H]1CN(CC2CCCC2)CCN1C(=O)c1ccc(NS(=O)(=O)c2cccc3cccnc23)cc1` [Compound 114, (R)—N-(4-(4-(cyclopentylmethyl)-2-methylpiperazine-1-carbonyl)phenyl)quinoline-8-sulfonamide] registered an AC50 (Table 4) of less than 100 nM.

For the setting “Table 4”, `C[C@@H]1CN(Cc2ccccc2F)CCN1C(=O)c1ccc(NS(=O)(=O)c2cccc3cccnc23)cc1` [Compound 150, (R)—N-(4-(4-(2-fluorobenzyl)-2-methylpiperazine-1-carbonyl)phenyl)quinoline-8-sulfonamide] returned an AC50 of less than 100 nM.

As to `O=C(c1ccc(NS(=O)(=O)c2cccc3cccnc23)c(OC(F)(F)F)c1)N1CCN(Cc2ccccc2F)CC1` [Compound 335, N-(4-(4-(2-fluorobenzyl)piperazine-1-carbonyl)-2-(trifluoromethoxy)phenyl)quinoline-8-sulfonamide], for the setting “Table 5”, the AC50 lay within 100 to 500 nM.

`C[C@H]1CN(Cc2cc(F)cc(F)c2)CCN1C(=O)c1ccc(NS(=O)(=O)c2cccc3cccnc23)cc1` [Compound 142, (S)—N-(4-(4-(3,5-difluorobenzyl)-2-methylpiperazine-1-carbonyl)phenyl)quinoline-8-sulfonamide] displayed an AC50 (Table 4) of less than 100 nM.

On to `C[C@H]1CN(Cc2cc(F)c(F)cc2F)CCN1C(=O)c1ccc(NS(=O)(=O)c2cccc3cccnc23)cc1` [Compound 145, (S)—N-(4-(2-methyl-4-(2,4,5-trifluorobenzyl)piperazine-1-carbonyl)phenyl)quinoline-8-sulfonamide], for which the half-maximal activity concentration (AC50) (Table 4) is less than 100 nM.

Take `C[C@@H]1CN(C(=O)O[C@@H]2CCOC2)CCN1C(=O)c1ccc(NS(=O)(=O)c2cccc3cccnc23)cc1` [Compound 126, (R)—((R)-tetrahydrofuran-3-yl)-3-methyl-4-(4-(quinoline-8-sulfonamido)benzoyl)piperazine-1-carboxylate]: for the setting “Table 4”, the concentration at half-maximal activity (AC50) lay within 100 to 500 nM.

With `COc1ncccc1CN1CCN(C(=O)c2ccc(NS(=O)(=O)c3cccc4cccnc34)c(OC(F)(F)F)c2)CC1` [Compound 368, N-(4-(4-((2-methoxypyridin-3-yl)methyl)piperazine-1-carbonyl)-2-(trifluoromethoxy)phenyl)quinoline-8-sulfonamide], the AC50 (Table 5) lay in the range of 100 to 500 nM.

`CC(C)(c1ccccc1)N1CCN(C(=O)c2ccc(NS(=O)(=O)c3cccc4cccnc34)cc2)CC1` [Compound 364] had an AC50 (Table 5) of less than 100 nM.

With `O=C(c1ccc(NS(=O)(=O)c2cccc3cccnc23)c(C(F)(F)F)c1)N1CCN(CC2CCCO2)CC1` (stereo not drawn) [Compound 329, N-(4-(4-((tetrahydrofuran-2-yl)methyl)piperazine-1-carbonyl)-2-(trifluoromethyl)phenyl)quinoline-8-sulfonamide], for the setting “Table 5”, the half-maximal activity concentration (AC50) was in the range of 1000 to 20000 nM.

As for `COc1ccncc1CN1CCN(C(=O)c2ccc(NS(=O)(=O)c3cccc4cccnc34)c(OC(F)(F)F)c2)CC1` [Compound 305, N-(4-(4-((4-methoxypyridin-3-yl)methyl)piperazine-1-carbonyl)-2-(trifluoromethoxy)phenyl)quinoline-8-sulfonamide], the concentration at half-maximal activity (AC50) (Table 5) was in the range of 100 to 500 nM.

The compound `O=C1CN(C(=O)c2ccc(NS(=O)(=O)c3cccc4cccnc34)cc2)CCN1Cc1cc(F)cc(F)c1` [Compound 216, N-(4-(4-(3,5-difluorobenzyl)-3-oxopiperazine-1-carbonyl)phenyl)quinoline-8-sulfonamide] had an AC50 (Table 4) of less than 100 nM.

`O=C(c1ccc(NS(=O)(=O)c2cccc3cccnc23)cc1Cl)N1CCN(CC2CCCCO2)CC1` (stereo not drawn) [Compound 439, N-(3-chloro-4-(4-((tetrahydro-2H-pyran-2-yl)methyl)piperazine-1-carbonyl)phenyl)quinoline-8-sulfonamide] registered an AC50 (Table 5) of 100 to 500 nM.

For the setting “Table 4”, `C[C@H]1CN(Cc2ccc(Cl)c(F)c2)CCN1C(=O)c1ccc(NS(=O)(=O)c2cccc3cccnc23)cc1Cl` [Compound 185, (S)—N-(3-chloro-4-(4-(4-chloro-3-fluorobenzyl)-2-methylpiperazine-1-carbonyl)phenyl)quinoline-8-sulfonamide] returned an AC50 of 500 to 1000 nM.

`CC(C)OC(=O)N1[C@H](C)CN(C(=O)c2ccc(NS(=O)(=O)c3cccc4cccnc34)cc2)C[C@@H]1C` [Compound 106, (2S,6R)-isopropyl 2,6-dimethyl-4-(4-(quinoline-8-sulfonamido)benzoyl)piperazine-1-carboxylate] displayed an AC50 (Table 4) of 100 to 500 nM.

Compound `C[C@H]1CN(Cc2ccc(Cl)c(F)c2)CCN1C(=O)c1ccc(NS(=O)(=O)c2cccc3cccnc23)cc1` [Compound 138, (S)—N-(4-(4-(4-chloro-3-fluorobenzyl)-2-methylpiperazine-1-carbonyl)phenyl)quinoline-8-sulfonamide] gave an AC50 (Table 4) of 100 to 500 nM.

With `C[C@@H]1CN(CC2CCOC2)CCN1C(=O)c1ccc(NS(=O)(=O)c2cccc3cccnc23)cc1` (stereo partly drawn) [Compound 115, N-(4-((2R)-2-methyl-4-((tetrahydrofuran-3-yl)methyl)piperazine-1-carbonyl)phenyl)quinoline-8-sulfonamide], under “Table 4”, the AC50 lay in the range of 100 to 500 nM.

What is called AC50 is the concentration at which the activity in the assay is half-maximal. Read a high AC50 as weaker potency.
